Measurements as given in patent publication US20150030566A1, “ANTIMICROBIAL PEPTIDE COMPOSITIONS FOR PLANTS” (Stellenbosch University, priority 2012, published 2015).
Like-named read-outs stand apart in the source and are kept apart here. Non-standard residues stand in square brackets, D forms with d. Residues, ends and D or L forms follow the SMILES beside them. No end group written: not given here. Orn = NCCC[C@H](N)C(=O)O

Key:
Fusarium solani = assay: Microdilution broth assay; assay type: cell-based; design: MIC against F. solani in PDB (n): unit not given beside the values; details: for MIC against F. solani in PDB (n): potato dextrose broth (low salt PDB)
Method: (§1) Microdilution broth and agar assays were used to assess the antifungal activity of the cyclic decapeptides in liquid media and on solid (gel) media, respectively.
(§2) The antibacterial activity of the tyrocidines and gramicidin S against all the bacteria tested was determined by the methods described by Du Toit E A and Rautenbach M (2000) J. Microbiol. Methods, 42, 159-165. The antifungal activity of the tyrocidines against all the […] tested was determined by the methods described by Troskie A M, Vlok N M and Rautenbach M (2012) J. Microbiol. Methods, 91, 551-558.

Botrytis cinerea = assay: Microdilution broth assay; assay type: cell-based; design: MIC + SEM / MIC against B. cinerea in PDB (n): unit not given beside the values
Method: as §1, §2

black foot disease = details: field conditions; Halleen et al. 2007; cited from earlier work
[1] = system: Cylindrocarpon and Campylocarpon spp; details: 13 fungicides evaluated; Halleen et al. 2007; cited from earlier work
[2] = potato dextrose broth (low salt PDB)

Molecule	MIC against F. solani in PDB (n) (Fusarium solani)	MIC against B. cinerea in PDB (n) (Botrytis cinerea; [2])	also measured
Cyclo-(VOLfPWwNQY) (chain 1 V[Orn]L[dF]PW[dW]NQY; chain 2 V[Orn]L[dF]PW[dW]NQY; also: head-to-tail to a chain's N/C-terminus; listed as Bacillus aneurinolyticus) [TrcC]	4.3 ± 0.4 (3)	3.5 ± 0.2 (6)	
CCCCNC(=O)n1c(NC(=O)OC)nc2ccccc21 [benomyl]			protection of propagation material against black foot disease (black foot disease): failed to protect propagation against black foot disease under field conditions; in vitro mycelial inhibition [1]: able to effectively reduce mycelial growth in all fungal strains tested
C=CCOC(Cn1ccnc1)c1ccc(Cl)cc1Cl (centres unmarked) [imazalil]			protection of propagation material against black foot disease (black foot disease): failed to protect propagation against black foot disease under field conditions; in vitro mycelial inhibition [1]: able to effectively reduce mycelial growth in all fungal strains tested
Cyclo-(VOLfPWwNQW) (chain 1 V[Orn]L[dF]PW[dW]NQW; chain 2 V[Orn]L[dF]PW[dW]NQW; also: head-to-tail to a chain's N/C-terminus; listed as Bacillus aneurinolyticus) [TpcC]	4.6 ± 0.9 (3)	3.6 ± 0.2 (6)	decrease in activity from YTSB to PDB (Fusarium solani; F. solani, YTSB (high salt) vs PDB (low salt)): approximately twofold; decrease in activity from PDB to YTSB (Botrytis cinerea; B. cinerea, YTSB (high salt) vs PDB (low salt)): approximately twofold
CC(C)C[C@@H]1NC(=O)[C@H](CCCN)NC(=O)[C@H](C(C)C)NC(=O)[C@H](Cc2ccc(O)cc2)NC(=O)[C@H](CCC(N)=O)NC(=O)[C@H](CC(N)=O)NC(=O)[C@@H](Cc2ccccc2)NC(=O)[C@H](Cc2ccccc2)NC(=O)C2CCCN2C(=O)[C@@H](Cc2ccccc2)NC1=O (some centres unmarked) [TrcA, Cyclo-(VOLfPFfNQY)] (HELM PEPTIDE1{F.[dF].N.Q.Y.V.[Orn].L.[dF].[O=C(C1CCCN1[*:1])[*:2]]}$PEPTIDE1,PEPTIDE1,1:R1-10:R2$$$V2.0)	4.0 ± 0.4 (3)		MIC against B. cinerea in PDB (n) (Botrytis cinerea): 5.2 ± 0.6 (6)
Cyclo-(VOLfP(W,f)NQY) (VXLFPWFNQY; HELM PEPTIDE1{V.[Orn].L.[dF].P.W.[dF].N.Q.Y}$PEPTIDE1,PEPTIDE1,1:R1-10:R2$$$V2.0; SMILES CC(C)C[C@@H]1NC(=O)[C@H](CCCN)NC(=O)[C@H](C(C)C)NC(=O)[C@H](Cc2ccc(O)cc2)NC(=O)[C@H](CCC(N)=O)NC(=O)[C@H](CC(N)=O)NC(=O)[C@@H](Cc2ccccc2)NC(=O)[C@H](Cc2c[nH]c3ccccc23)NC(=O)[C@@H]2CCCN2C(=O)[C@@H](Cc2ccccc2)NC1=O) [TrcB/B′]	11 ± 4.0 (3)	5.1 ± 1.0 (6)	
Cyclo-(VKLfPFfNQY) (chain 1 VKL[dF]PF[dF]NQY; chain 2 VKL[dF]PF[dF]NQY; also: head-to-tail to a chain's N/C-terminus; listed as Bacillus aneurinolyticus) [TrcA1]	7.9 ± 0.7 (3)	4.1 ± 0.7 (6)	
Cyclo-(VOLfPFfNQF) (chain 1 V[Orn]L[dF]PF[dF]NQF; chain 2 V[Orn]L[dF]PF[dF]NQF; also: head-to-tail to a chain's N/C-terminus; listed as Bacillus aneurinolyticus) [PhcA]	7.2 ± 1.0 (3)	6.9 ± 1.4 (5)	loss of activity from PDB to YTSB (Fusarium solani; F. solani, PDB (low salt) vs YTSB (high salt)): ~5 fold; loss of activity from PDB to YTSB (Botrytis cinerea; B. cinerea, PDB (low salt) vs YTSB (high salt)): ~2 fold
Cyclo-(VKLfP(W,f)NQY) (VKLFPWFNQY; HELM PEPTIDE1{V.K.L.[dF].P.W.[dF].N.Q.Y}$PEPTIDE1,PEPTIDE1,1:R1-10:R2$$$V2.0; SMILES CC(C)C[C@@H]1NC(=O)[C@H](CCCCN)NC(=O)[C@H](C(C)C)NC(=O)[C@H](Cc2ccc(O)cc2)NC(=O)[C@H](CCC(N)=O)NC(=O)[C@H](CC(N)=O)NC(=O)[C@@H](Cc2ccccc2)NC(=O)[C@H](Cc2c[nH]c3ccccc23)NC(=O)[C@@H]2CCCN2C(=O)[C@@H](Cc2ccccc2)NC1=O) [TrcB1/B1′]	5.9 ± 0.6 (3)	3.6 ± 0.1 (6)	
CCCN(CCOc1c(Cl)cc(Cl)cc1Cl)C(=O)n1ccnc1.CCCN(CCOc1c(Cl)cc(Cl)cc1Cl)C(=O)n1ccnc1.CCCN(CCOc1c(Cl)cc(Cl)cc1Cl)C(=O)n1ccnc1.CCCN(CCOc1c(Cl)cc(Cl)cc1Cl)C(=O)n1ccnc1.[Cl][Mn][Cl] [prochloraz manganese chloride]			protection of propagation material against black foot disease (black foot disease): failed to protect propagation against black foot disease under field conditions; in vitro mycelial inhibition [1]: able to effectively reduce mycelial growth in all fungal strains tested
Cyclo-(VKLfPWwNQY) (chain 1 VKL[dF]PW[dW]NQY; chain 2 VKL[dF]PW[dW]NQY; also: head-to-tail to a chain's N/C-terminus; listed as Bacillus aneurinolyticus) [TrcC1]	32 ± 2.8 (3)	8.9 ± 1.5 (3)	
